# Experimental data taken from US11234979B2, “Heteroaryl compounds as muscarinic M1 receptor positive allosteric modulators” (SUVEN LIFE SCIENCES LIMITED, priority 2017, dated 2022).
# Legend:
# [1] = Rodent brain penetration study; type: in vivo, Male Wistar rats; conditions: male, Wistar, brain and plasma, po; rat, 3 mg/kg, p.o. @ 1.0 hr, brain-plasma ratio; read-out: Single dose Rat Brain Penetration (Cb/Cp)
# Method: Rodent Brain Penetration Study
# Male Wistar rats (260±40 grams) were used as experimental animals. Three animals were housed in each cage. Animals were given water and food ad libitum throughout the experiment and maintained on a 12 hours light/dark cycle.
# Brain penetration was determined in discrete manner in rats. One day prior to dosing day, male Wistar rats were acclimatized and randomly grouped according to their weight. At each time point (0.5, 1 and 2 hours) n=3 animals were used.
# The test compounds were suitably preformulated and administered orally at (free base equivalent) 3 mg/kg. Blood samples were removed via cardiac puncture by using isoflurane anesthesia. The animals were sacrificed to collect brain tissue. Plasma was separated and brain samples were homogenized and stored frozen at −20° C. until analysis. The concentrations of the test compounds in plasma and brain were determined using LC-MS/MS method.
# The test compounds were quantified in plasma and brain homogenate by qualified LC-MS/MS method using suitable extraction technique. The test compounds were quantified in the calibration range of 1-500 ng/mL in plasma and brain homogenate. Study samples were analyzed using calibration samples in the batch and quality control samples spread across the batch.
# [2] = Rodent pharmacokinetic study; type: in vivo, Male Wistar rats; conditions: male, Wistar, rat, plasma; for bioavailability: oral 3 mg/kg vs i.v. 1 mg/kg
# Method: Rodent Pharmacokinetic Study
# Male Wistar rats (260±50 grams) were used as experimental animals. Animals were housed individually in polypropylene cage. Two days prior to study, male Wistar rats were anesthetized with isoflurane for surgical placement of jugular vein catheter. Rats were randomly divided for oral (3 mg/kg) and intravenous (i.v) (1 mg/kg) dosing (n=3/group) and fasted overnight before oral dosing (p.o.). However, rats allocated to intravenous (i.v.) dosing food and water was provided ad libitum.
# At pre-determined point, blood was collected through jugular vein and replenished with an equivalent volume of normal saline. Collected blood was transferred into a labeled eppendorf tube containing 10 μL of heparin as an anticoagulant. Typically blood samples were collected at following time points: 0.08, 0.25, 0.5, 1, 2, 4, 6, 8, and 24 hours post dose. Blood was centrifuged at 4000 rpm for 10 minutes. Plasma was separated and stored frozen at −80° C. until analysis. The concentrations of the test compounds were quantified in plasma by qualified LC-MS/MS method using suitable extraction technique. The test compounds were quantified in the calibration range around 1-1000 ng/mL in plasma. Study samples were analyzed using calibration samples in the batch and quality control samples spread across the batch.
# Pharmacokinetic parameters Cmax, AUCt, T1/2, clearance and bioavailability (F) were calculated by non-compartmental model using standard non-compartmental model by using Phoenix WinNonlin 6.0.2 or 6.0.3 version Software package.
# [3] = biological target: T1, recombinant human Muscarinic M1 receptor (Homo sapiens, UniProt P11229); assay: Allosteric potency EC50 for Muscarinic M1 receptor, CHO pCRE-Luc reporter assay with EC20 of acetylcholine; type: cell-based; conditions: CHO cells, in presence of EC20 of acetylcholine, 4 hours
# T1 construct: expressed in transfected cells
# T1 sequence (P11229 1-460): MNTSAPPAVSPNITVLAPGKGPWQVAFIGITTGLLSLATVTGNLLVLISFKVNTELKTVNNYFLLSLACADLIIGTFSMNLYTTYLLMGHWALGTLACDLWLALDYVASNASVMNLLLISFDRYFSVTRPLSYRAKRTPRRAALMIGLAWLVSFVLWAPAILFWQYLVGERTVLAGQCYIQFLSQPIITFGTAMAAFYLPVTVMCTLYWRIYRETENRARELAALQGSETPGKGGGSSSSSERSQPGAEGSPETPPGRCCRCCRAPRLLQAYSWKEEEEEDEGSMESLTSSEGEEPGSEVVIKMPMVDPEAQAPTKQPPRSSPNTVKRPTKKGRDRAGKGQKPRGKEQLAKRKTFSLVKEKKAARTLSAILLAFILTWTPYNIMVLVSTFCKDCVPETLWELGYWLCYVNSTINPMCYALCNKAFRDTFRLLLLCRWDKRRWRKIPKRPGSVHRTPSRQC
# Method: Determination of Allosteric Potency EC50 Values for Muscarinic M1 Receptor:
# A stable CHO cell line expressing recombinant human Muscarinic M1 receptor and pCRE-Luc reporter system was used for cell-based assay. The assay offers a non-radioactive based approach to determine binding of a compound to GPCRs. In this specific assay, the level of intracellular cyclic AMP which is modulated by activation or inhibition of the receptor is measured. The recombinant cells harbor luciferase reporter gene under the control of cAMP response element.
# The above cells were grown in 96 well clear bottom white plates in Hams F12 medium containing 10% fetal bovine serum (FBS). Prior to the addition of compounds or standard agonist, cells were serum starved overnight. Increasing concentrations of test compounds were added along with EC20 of acetylcholine in OptiMEM medium to the cells. The incubation was continued at 37° C. in CO2 incubator for 4 hours. Medium was removed and cells were washed with phosphate buffered saline. The cells were lysed and luciferase activity was measured in a Luminometer. Luminescence counts in each concentrations of test item were normalized to the acetylcholine induced maximum response and the data was analyzed using Graphpad software. EC50 values of the compounds were defined as the concentration required in stimulating the luciferase activity by 50% in presence of EC20 of acetylcholine.
smiles,measurement,setting,value
"O=C(N[C@H]1CCCC[C@@H]1O)c1cc(Cc2ccc3c(c2)CCO3)c2cccnn12 [Example 4, N-(cis-1S,2S-2-Hydroxycyclohexyl)-5-(2,3-dihydrobenzofuran-5-ylmethyl)-pyrrolo[1,2-b]pyridazine-7-carboxamide]",Kp at 1 h,[1],1.31 ± 0.11
same,AUC(0-t),"[2]; iv, i.v. 1 mg/kg",599 ± 58 ng·h/mL
same,half-life,"[2]; iv, i.v. 1 mg/kg",2.4 ± 0.9 h
same,clearance,"[2]; iv, i.v. 1 mg/kg",27 ± 3.4 mL/min/kg
same,bioavailability,[2],25 ± 4%
same,AUC(0-t),[2]; oral 3 mg/kg,457 ± 73 ng·h/mL
same,Cmax,[2]; oral 3 mg/kg,105 ± 3 ng/mL
same,half-life,[2]; oral 3 mg/kg,3.9 ± 1.4 h
same,EC50,[3],836 nM
"O=C(N[C@H]1CCCC[C@@H]1O)c1cc(Cc2cc(Br)ccc2F)c2cccnn12 [Example 2, N-(cis-1S,2S-2-Hydroxycyclohexyl)-5-(5-bromo-2-fluorobenzyl)-pyrrolo[1,2-b]pyridazine-7-carboxamide]",EC50,[3],419 nM
"Cn1cc(-c2ccc(Cc3cc(C(=O)N[C@H]4CCCC[C@@H]4O)c4c(F)cccn34)cc2)cn1 [Example 48, N-(cis-1S,2S-2-Hydroxycyclohexyl)-5-[4-(1-methyl-1H-pyrazol-4-yl)-benzyl]-8-fluoroindolizine-1-carboxamide]",EC50,[3],166 nM
"O=C(N[C@H]1CCCC[C@@H]1O)c1cc(Cc2ccc(F)c(F)c2)c2cccnn12 [Example 15, N-(cis-1S,2S-2-Hydroxycyclohexyl)-5-(3,4-difluorobenzyl)-pyrrolo[1,2-b]pyridazine-7-carboxamide]",EC50,[3],1510 nM
"COc1cccc(Cc2cc(C(=O)N[C@H]3CCCC[C@@H]3O)n3ncccc23)c1 [Example 6, N-(cis-1S,2S-2-Hydroxycyclohexyl)-5-(3-methoxybenzyl)-pyrrolo[1,2-b]pyridazine-7-carboxamide]",EC50,[3],3030 nM
"O=C(N[C@H]1CCCC[C@@H]1O)c1cc(Cc2ccc(Br)c(F)c2)c2cccnn12 [Example 3, N-(cis-1S,2S-2-Hydroxycyclohexyl)-5-(4-bromo-3-fluorobenzyl)-pyrrolo[1,2-b]pyridazine-7-carboxamide]",Kp at 1 h,[1],1.9 ± 0.27
same,AUC(0-t),"[2]; iv, i.v. 1 mg/kg",951 ± 213 ng·h/mL
same,half-life,"[2]; iv, i.v. 1 mg/kg",3.5 ± 1.1 h
same,clearance,"[2]; iv, i.v. 1 mg/kg",17 ± 3 mL/min/kg
same,bioavailability,[2],49 ± 27%
same,AUC(0-t),[2]; oral 3 mg/kg,1390 ± 780 ng·h/mL
same,Cmax,[2]; oral 3 mg/kg,132 ± 31 ng/mL
same,half-life,[2]; oral 3 mg/kg,3.6 ± 0.2 h
same,EC50,[3],653 nM
"O=C(N[C@H]1CCCC[C@@H]1O)c1cc(Cc2ccc(-c3cscn3)cc2)c2cccnn12 [Example 23, N-(cis-1S,2S-2-Hydroxycyclohexyl)-5-(4-thiazol-4-ylbenzyl)-pyrrolo[1,2-b]pyridazine-7-carboxamide]",EC50,[3],119 nM
"Cn1cc(-c2ccc(Cc3cc(C(=O)N[C@H]4CCCC[C@@H]4O)n4ncccc34)cc2F)cn1 [Example 33, N-(cis-1S,2S-2-Hydroxycyclohexyl)-5-[3-fluoro-4-(1-methyl-1H-pyrazol-4-yl)-benzyl]-pyrrolo[1,2-b]pyridazine-7-carboxamide]",Kp at 1 h,[1],0.2 ± 0.001
same,AUC(0-t),"[2]; iv, i.v. 1 mg/kg",908 ± 164 ng·h/mL
same,half-life,"[2]; iv, i.v. 1 mg/kg",1.3 ± 0.2 h
same,clearance,"[2]; iv, i.v. 1 mg/kg",19 ± 3.8 mL/min/kg
same,bioavailability,[2],103 ± 0.7%
same,AUC(0-t),[2]; oral 3 mg/kg,2820 ± 20 ng·h/mL
same,Cmax,[2]; oral 3 mg/kg,414 ± 21 ng/mL
same,half-life,[2]; oral 3 mg/kg,2.7 ± 0.1 h
same,EC50,[3],259 nM
"COc1ccc(Cc2cc(C(=O)N[C@H]3CCCC[C@@H]3O)c3c(F)cccn23)cc1 [Example 44, N-(cis-1S,2S-2-Hydroxycyclohexyl)-3-(4-methoxybenzyl)-8-fluoroindolizine-1-carboxamide]",EC50,[3],1590 nM
"O=C(N[C@H]1CCCC[C@@H]1O)c1cc(Cc2ccccc2F)c2cccnn12 [Example 13, N-(cis-1S,2S-2-Hydroxycyclohexyl)-5-(2-fluorobenzyl)-pyrrolo[1,2-b]pyridazine-7-carboxamide]",EC50,[3],1760 nM
"COc1ccc(Cc2cc(C(=O)NC3CCOCC3O)c3c(F)cccn23)cc1 (stereo not shown) [Example 47, N-(3-Hydroxytetrahydropyran-4-yl)-3-(4-methoxybenzyl)-8-fluoroindolizine-1-carboxamide]",EC50,[3],1110 nM
"O=C(N[C@H]1CCCC[C@@H]1O)c1cc(Cc2cccnc2Cl)c2cccnn12 [Example 28, N-(cis-1S,2S-2-Hydroxycyclohexyl)-5-(2-chloropyridin-3-ylmethyl)-pyrrolo[1,2-b]pyridazine-7-carboxamide]",EC50,[3],10000 nM
"Cn1cc(-c2ccc(Cc3cc(C(=O)N[C@H]4CCCC[C@@H]4O)n4ncccc34)cn2)cn1 [Example 35, N-(cis-1S,2S-2-Hydroxycyclohexyl)-5-[6-(1-methyl-1H-pyrazol-4-yl)-pyridin-3-ylmethyl]-pyrrolo[1,2-b]pyridazine-7-carboxamide]",EC50,[3],599 nM
"O=C(NC1CCOCC1)c1cc(Cc2ccc(-n3cccn3)cc2)c2cccnn12 [Example 22, N-(Tetrahydropyran-4-yl)-5-(4-pyrazol-1-ylbenzyl)-pyrrolo[1,2-b]pyridazine-7-carboxamide]",EC50,[3],1760 nM
"O=C(NC1CCOCC1O)c1cc(Cc2cccc(F)c2)c2cccnn12 (stereo not shown) [Example 30, N-(3-Hydroxytetrahydropyran-4-yl)-5-(3-fluorobenzyl)-pyrrolo[1,2-b]pyridazine-7-carboxamide]",EC50,[3],1650 nM
"O=C(N[C@H]1CCCC[C@@H]1O)c1cc(Cc2ccc(-n3cccn3)cc2)c2cccnn12 [Example 21, N-(cis-1S,2S-2-Hydroxycyclohexyl)-5-(4-pyrazol-1-ylbenzyl)-pyrrolo[1,2-b]pyridazine-7-carboxamide]",Kp at 1 h,[1],0.24 ± 0.02
same,AUC(0-t),"[2]; iv, i.v. 1 mg/kg",3700 ± 768 ng·h/mL
same,half-life,"[2]; iv, i.v. 1 mg/kg",2.5 ± 0.7 h
same,clearance,"[2]; iv, i.v. 1 mg/kg",4.6 ± 0.9 mL/min/kg
same,bioavailability,[2],49 ± 12%
same,AUC(0-t),[2]; oral 3 mg/kg,5470 ± 1370 ng·h/mL
same,Cmax,[2]; oral 3 mg/kg,687 ± 169 ng/mL
same,half-life,[2]; oral 3 mg/kg,3.4 ± 1.01 h
same,EC50,[3],179 nM
"O=C(NC1CCOCC1O)c1cc(Cc2ccnc(Cl)c2)n2cccc(F)c12 (stereo not shown) [Example 46, N-(3-Hydroxytetrahydropyran-4-yl)-3-(2-chloropyridine-4-ylmethyl)-8-fluoroindolizine-1-carboxamide]",EC50,[3],463 nM
